A short description of one data set: Solubility in water. The format is physicochemical.
The conditions of data set [1]: cited from earlier work.

With `O=C(NC(NC(=S)Nc1ccc(I)cc1)C(Cl)(Cl)Cl)OCc1ccccc1` (stereo not drawn) [PKUMDL-YC-1203], the Solubility in water entry in “Solubility in water” is “less soluble in water”.

In the case of `Cc1ccccc1C(=O)NC(NC(=S)Nc1cc(Cl)cc(Cl)c1Cl)C(Cl)(Cl)Cl` (stereo not drawn) [PKUMDL-YC-1204], in “Solubility in water”, the Solubility in water entry was “less soluble in water”. As for JY-3-094, the Cell penetration entry in data set [1] was “penetrates cells poorly”.

Values taken from article PMC4773988, “Structure-based Inhibitor Design for the Intrinsically Disordered Protein c-Myc” (Scientific Reports, 2016).
